From ChEMBL document CHEMBL1208723, “Synthesis and activity of polyacetylene substituted 2-hydroxy acids, esters, and amides against microbes of clinical importance” (Bioorg Med Chem Lett, 2010)

Experiments:
[1] = test system: Staphylococcus aureus; assay: Antibacterial activity against Staphylococcus aureus ATCC 25923; type: functional; further: test concentration or dose not given here
[2] = test system: Candida albicans; assay: Antifungal activity against Candida albicans; type: functional, organism-based
[3] = test system: Staphylococcus aureus; assay: Antibacterial activity against methicillin-resistant Staphylococcus aureus; type: functional; further: test concentration or dose not given here
[4] = test system: Candida tropicalis; assay: Antifungal activity against Candida tropicalis; type: functional, organism-based
[5] = test system: Escherichia coli; assay: Antibacterial activity against Escherichia coli ATCC 25922; type: functional; further: test concentration or dose not given here
[6] = test system: Pichia kudriavzevii; assay: Antifungal activity against Candida krusei; type: functional, organism-based
[7] = test system: Pseudomonas aeruginosa; assay: Antibacterial activity against Pseudomonas aeruginosa ATCC 27853; type: functional; further: test concentration or dose not given here
[8] = test system: Streptococcus pyogenes; assay: Antibacterial activity against Streptococcus pyogenes ATCC 19615; type: functional; further: test concentration or dose not given here
[9] = test system: Nakaseomyces glabratus; assay: Antifungal activity against Candida glabrata; type: functional, organism-based
[10] = test system: Candida parapsilosis; assay: Antifungal activity against Candida parapsilosis; type: functional, organism-based
[11] = Candida albicans, read-out: IC50
[12] = Candida tropicalis, read-out: IC50
[13] = Pichia kudriavzevii, read-out: IC50
[14] = Nakaseomyces glabratus, read-out: IC50
[15] = Lodderomyces parapsilosis, read-out: IC50

| SMILES | inhibition (INH) [1] [%] | IC50 [2] | inhibition (INH) [3] [%] | IC50 [4] | inhibition (INH) [5] [%] | IC50 [6] | inhibition (INH) [7] [%] | inhibition (INH) [8] [%] | IC50 [9] | IC50 [10] | IC50 [2, 11] [µM] | IC50 [4, 12] [µM] | IC50 [6, 13] [µM] | IC50 [9, 14] [µM] | IC50 [10, 15] [µM] |
| --- | --- | --- | --- | --- | --- | --- | --- | --- | --- | --- | --- | --- | --- | --- | --- |
| CCCCCC#C/C=C\C#CC[C@@H]1O[C@](C)(OC)[C@@](C)(OC)OC1=O | 25 | Not Active | 25 | Not Active | 50 | Not Active | >75 | >75 | Not Active | Not Active |  |  |  |  |  |
| CCCC#CC#CC#CCCCCCC(O)C(=O)O (stereo not drawn) | >75 |  |  |  | >75 |  | >75 | >75 |  |  | 500 | 500 | 500 | 500 | 125 |
| CCCCC#CC#C/C=C/CCCCCCC(O)C(=O)O (stereo not drawn) | 50 |  |  |  |  |  | >75 | 25 |  |  | 500 | 500 | 500 | 500 | 250 |
| CCCC#C/C=C\C#CCCCCC[C@@H]1O[C@](C)(OC)[C@@](C)(OC)OC1=O | 25 | Not Active | 25 | Not Active | 50 | Not Active | >75 | >75 | Not Active | Not Active |  |  |  |  |  |
| CCCCCC/C=C\C#CC#CCCCCC(O)C(=O)OC (stereo not drawn) | 50 | Not Active | >75 | Not Active | 25 | Not Active | >75 | >75 |  |  |  |  |  | 1000 | 30 |
| CCCCC#CC#C/C=C/CCCCCC[C@@H]1O[C@](C)(OC)[C@@](C)(OC)OC1=O | 25 | Not Active | 25 | Not Active | 50 | Not Active | >75 | >75 | Not Active | Not Active |  |  |  |  |  |
| CCCCCC#CC#CC#CCCCCCC(O)C(=O)O (stereo not drawn) | >75 | Not Active |  |  | >75 |  | >75 | 50 |  |  |  | 500 | 500 | 500 | 2 |
| CCCCCC#CC#C/C=C/CCCCCC(O)C(=O)OC (stereo not drawn) | 25 |  | >75 | Not Active | 50 | Not Active | >75 | >75 |  | Not Active | 1000 |  |  | 500 |  |
| CCCCC#CC#C/C=C/CCCCCCC(O)C(=O)NCc1ccccc1 (stereo not drawn) | 25 | Not Active | 50 | Not Active | 50 | Not Active | >75 | >75 | Not Active | Not Active |  |  |  |  |  |
| CCCCC/C=C\C#CC#CCCCCCC(O)C(=O)O (stereo not drawn) | >75 | Not Active |  |  | >75 |  | >75 | >75 |  |  |  | 1000 | 1000 | 500 | 2 |
| CCCCC#CC#C/C=C/CCCCCCC(O)C(=O)OC(C)C (stereo not drawn) | 25 | Not Active | 50 | Not Active | 50 | Not Active | >75 | >75 | Not Active | Not Active |  |  |  |  |  |
| CCCCCC#CC#C/C=C/CCCCCC(O)C(=O)O (stereo not drawn) |  |  | >75 |  | 25 |  | >75 | 50 |  |  | 500 | 500 | 500 | 500 | 2 |
| CCCC/C=C\C#CC#CCCCCCC(O)C(=O)NCC(C)C (stereo not drawn) | 50 | Not Active | >75 | Not Active | 50 | Not Active | >75 | >75 | Not Active | Not Active |  |  |  |  |  |
| CCCCC#CC#C/C=C\CCCCCCC(O)C(=O)O (stereo not drawn) | 25 | Not Active |  | Not Active |  | Not Active | >75 |  | Not Active | Not Active |  |  |  |  |  |
| O=C(O)C(O)CCCCCCC#C/C=C\C#Cc1ccco1 (stereo not drawn) | >75 | Not Active | 25 | Not Active | >75 | Not Active | >75 | >75 | Not Active |  |  |  |  |  | 500 |
| CCCCC/C=C\C#CC#CCCCCC[C@@H]1O[C@](C)(OC)[C@@](C)(OC)OC1=O | 50 | Not Active | 25 | Not Active | 50 | Not Active | >75 | >75 | Not Active | Not Active |  |  |  |  |  |
| CCCC#C/C=C\C#CCCCCCC(O)C(=O)O (stereo not drawn) | >75 | Not Active |  | Not Active | 50 | Not Active | >75 | >75 | Not Active | Not Active |  |  |  |  |  |
| CCCCCC#C/C=C\C#CCCCCCC(O)C(=O)O (stereo not drawn) | >75 | Not Active |  | Not Active | 50 | Not Active | >75 | >75 | Not Active | Not Active |  |  |  |  |  |
| CCCC#CC#CC#CCCCCC[C@@H]1O[C@](C)(OC)[C@@](C)(OC)OC1=O | 50 | Not Active | 25 | Not Active | >75 | Not Active | >75 | >75 | Not Active | Not Active |  |  |  |  |  |
| CCCC#C/C=C\C#CCCCCCC(O)C(=O)OCCCc1ccccc1 (stereo not drawn) | 25 | Not Active | 25 | Not Active | 50 | Not Active | >75 | >75 | Not Active | Not Active |  |  |  |  |  |
| CCCCC#C/C=C\C#CCCCCCCC(O)C(=O)O (stereo not drawn) | >75 | Not Active |  | Not Active | >75 | Not Active | >75 | >75 | Not Active |  |  |  |  |  | 500 |
